Consider one compound from patent US20120323016A1, “METHOD OF PREPARING DERIVATIVES/OLIGOMERS OF EPICATECHIN AND APPLICATIONS THEREOF” (NATIONAL UNIVERSITY OF SINGAPORE, priority 2009, published 2012).

Structures are written as SMILES.

The test in a line: Oxygen radical absorbance capacity (ORAC) assay. The method, then: Peroxyl radical scavenging capacity of the EC2S2 was determined using oxygen radical absorbance capacity (ORAC) assay (Huang, D.; Ou, B.; Hampsch-Woodill, M.; Flanagan, J. A.; Prior, R. L. High-throughput assay of oxygen radical absorbance capacity (ORAC) using a multichannel liquid handling system coupled with a microplate fluorescence reader in 96-well format. Journal of Agricultural and Food Chemistry (2002), 50(16), 4437-4444.). […] The net area under the curve has excellent linear relationship with the concentration of EC2S2. The ORAC value calculated from the individual concentration is 10.79±0.58 μmol TE/μmol sample. This is the highest ORAC value reported for pure antioxidant compounds.

Consider `Oc1cc(O)c2c(c1)O[C@H](c1ccc(O)c(O)c1)[C@H](O)[C@H]2SCCS[C@H]1c2c(O)cc(O)cc2O[C@H](c2ccc(O)c(O)c2)[C@@H]1O` [EC2S2, (2R,2′R,3S,3′S,4S,4′S)-4,4′-(ethane-1,2-diylbis(sulfanediyl))bis(2-(3,4-dihydroxyphenyl)chroman-3,5,7-triol)], for which the “antioxidant activity relative to EC” value (EC2S2 synthesized from Pine Bark OPCs, compared with EC) is reported as “two times higher than EC”. In addition, the “ORAC value (peroxyl radical scavenging capacity)” value (calculated from the individual concentration, Trolox standard) is listed as 10.79±0.58 μmol TE/μmol sample.
